This is an account of results in paper PMC4640232 (The Journal of Organic Chemistry, 2015).

This assay addresses concanavalin A (ConA) (Canavalia ensiformis, UniProt P02866). The assay can be described thus: isothermal titration calorimetry. In kind it is binding.

Chain of concanavalin A (ConA) (P02866 164-281 limits assumed): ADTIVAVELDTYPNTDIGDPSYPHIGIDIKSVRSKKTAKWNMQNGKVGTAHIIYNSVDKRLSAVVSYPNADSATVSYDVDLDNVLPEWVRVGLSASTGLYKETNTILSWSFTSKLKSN
Chain of concanavalin A (ConA) (P02866 30-148 limits assumed): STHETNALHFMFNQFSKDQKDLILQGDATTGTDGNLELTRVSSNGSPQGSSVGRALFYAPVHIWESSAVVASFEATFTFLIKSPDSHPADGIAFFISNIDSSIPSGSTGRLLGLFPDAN

`CCCO[C@@H]1O[C@H](CO[C@H]2O[C@H](CO)[C@@H](O)[C@H](O)[C@@H]2O)[C@@H](O)[C@H](O[C@H]2O[C@H](CO)[C@@H](O)[C@H](O)[C@@H]2O)[C@@H]1O` [compound 12, n-Propyl 3,6-Di-O-(α-D-mannopyranosyl)-β-D-mannopyranoside] returned a Kd of 3.27 µM. This counts as single-digit micromolar.

In the case of `CO[C@H]1O[C@H](CO)[C@@H](O)[C@H](O)[C@@H]1O` [methyl α-mannoside], binding was put at a Kd of 4.65 µM. The Kd values of the last two compounds are within 1.5-fold of each other.
